Measurements: patent US20230035491A1, “METHODS, KITS AND COMPOSITIONS FOR REDUCING CARDIOTOXICITY ASSOCIATED WITH CANCER THERAPIES” (Baruch S. Blumberg Institute, priority 2019, published 2023)
Where a name gives a salt, the structure may show the parent alone.

Key:
[1] = system: breast cancer cell lines (BCa); test: CellTiter-Glo luminescent cell viability assay, breast cancer cell lines; format: cell-based; conditions: 5 μM Dox plus 50 μM compound vs Dox alone
iPSC-CM = test: CellTiter-Glo luminescent cell viability assay, iPSC-derived cardiomyocytes; format: cell-based; conditions: 5 μM Dox plus 50 μM compound vs Dox alone
[2] = system: Isolated canine cardiac myocytes; test: DOX-induced apoptosis of isolated canine cardiac myocytes; format: cell-based; conditions: 24 hours
[3] = system: breast cancer cell line Py8119; test: Py8119 cell proliferation by cell number using methylene blue; format: cell-based; conditions: Ranolazine 0.156 um to 20 um, alone or with 5 uM Dox
Procedure: The breast cancer cell line Py8119 was treated with either increasing doses of Ranolazine (0.156 um to 20 um) or with the addition of doxorubicin. (5 uM Dox). Cell proliferation was established by cell number using methylene blue.

cardiac progenitor iPSCs [4] = test: DOX killing and CCR5 expression in cardiac progenitor iPSCs, propidium iodide / flow cytometry; format: cell-based
Procedure: Some cells were suspended in PBS containing normal mouse IgG and rat anti-mouse Fcg III/II receptor antibody. Cells were exposed allophycocyanin (APC)-labeled CCR5 antibody for 1 hour at 4° C. After washing, analysis of CCR5 expression on cell was conducted on FACSCalibur flow cytometer (BD Biosciences). The data was analyzed with FlowJo software (Tree Star, Inc.). […] As such, CCR5+ cardiac progenitor cells are more prone to DOX induced cell death from than their CCR5− counterparts.

[5] = Survival of doxorubicin treated mice over 90 days; format: in vivo
From the text: Survival was documented over the first 90 days after the beginning of treatment.

[6] = system: CCR5 ligands CCL3, CCL5, CCL4; conditions: doxorubicin treated patients (n=7) vs donor controls (n=9); cited from earlier work
[7] = Chronic DOX model, cardiac function by echocardiography; format: in vivo; conditions: female mice, DOX 8×3 mg/kg over 2 weeks; 6 and 8 weeks after first injections; vs saline
Procedure: Female mice (n=10) were treated with a chronic regimen of DOX (8×3 mg/kg over 2 weeks) and cardiac function assessed by echocardiography at 6 and 8 weeks after the first injections. Echocardiographic imaging was employed using the Vevo 2100 preclinical high-frequency ultrasound system (Visualsonics, Toronto, Canada). M-mode analysis of the resulting images provided indices of cardiac systolic and diastolic function. For FIG. 5a, the ejection fraction is the percentage of the left ventricular volume expelled with each cardiac contraction. For FIG. 5b, the ESD is the […]. For FIG. 5c, the ESV is the end systolic volume or the volume of the heart at the end of contraction (systole). For FIG. 5d, the PWs is the posterior wall thickness at end of systole or the thickness of the myocardium at maximal ventricular contraction. All data are compared to the saline treated group and represent mean+/−SEM, p<0.01.

[8] = system: CCR5, CCL3/MIP-la, CCL5/RANTES; conditions: chronic or acute DOX regimen vs saline; cited from earlier work
[9] = system: BCa cells (SUM-159, FC-IBC-02, MDA-MB-231); test: CCR5 expression in BCa cells grown in doxorubicin, flow cytometry; format: cell-based; conditions: 10-40 nmol/L doxorubicin for up to 80 days vs untreated
Procedure: BCa cells were grown in vitro under standard conditions for control (“solid bar”) or DOX treatment (“non-solid bar”) for up to 80 days. SUM-159 cells were grown in 10 nmol/L doxorubicin for 1 month, then 20 nmol/L doxorubicin for 1 month, and then 40 nmol/L doxorubicin for 3 weeks, prior to analysis. FC-IBC-02 cells were grown in 40 nmol/L doxorubicin for 1 month prior to analysis. MDA-MB-231 cells were grown in 20 nmol/L doxorubicin for 1 month then 40 nmol/L doxorubicin for 3 weeks prior to analysis. At the conclusion of the 80 days, surviving cells were harvested and pelleted by centrifugation. Cells were suspended in PBS containing normal mouse IgG and rat anti-mouse Fcg III/II receptor antibody to block nonspecific binding. Cells were exposed allophycocyanin (APC)-labeled CCR5 antibody for 1 hour at 4° C. After washing, analysis of CCR5 expression on cell was conducted on FACSCalibur flow cytometer (BD Biosciences). The data was analyzed with FlowJo software (Tree Star, Inc.). […] Data are % cells expressing CCR5 (mean of n=3 determinations).

CCR5 = CCR5 immunostaining of myocardium after chronic regimen of DOX; format: in vivo, mice; conditions: DOX 8×3 mg/kg IP, excised after 8 weeks; vs saline
Procedure: Mice were treated with a chronic regimen of DOX (8×3 mg/kg, IP, n=12) or saline (n=10), excised after 8 weeks and fixed in paraformaldehyde overnight before being embedded in paraffin blocks. Blocks were sectioned (5 μm) and, after deparaffinization and rehydration, antigen retrieval was performed in Tris buffer (pH 9). After blocking, sections were incubated with an antibody against CCR5. Anti-CCR5 antibody binding was visualized using an HRP-conjugated second antibody and Nova red substitute. Haematoxylin was used for nuclear visualization.

CCR5, CCL3, CCL5 = system: CCR5, CCL3, CCL5; design: species or system human
Procedure: FIGS. 4a through 4f show myocardial biopsies from patients with either doxorubicin-induced cardiomyopathy or donor control heart. […] Samples were obtained from the Sydney heart bank. Biopsies were obtained at the time of transplant for the doxorubicin affected hearts. […] Heart biopsies were fixed in paraformaldehyde overnight prior to being embedded in paraffin blocks. Blocks were sectioned at […]. After deparaffinization and rehydration, antigen retrieval was performed in Tris buffer (pH 9) on the resulting sections. After blocking, sections were incubated with an antibody against CCR5, CCL3, or CCL5. Anti-CCR5 antibody binding was visualized using an HRP-conjugated second antibody and NOVA red substrate. Haematoxylin was used for nuclear visualization.

miRNAs targeting CCR5 = test: miRNA expression profiles of hearts after acute doxorubicin regimen (Illumina miRNA arrays); format: in vivo, rats; conditions: acute doxorubicin 1x 20 mg/kg IP, n=6, vs saline
From the text: In silico analysis using the miRdb database (www.mirdb.org) identified a number of miRNAs that could potentially regulate translation of CCR5 in rats (see X-axis for identification of individual miRNAs). […] Data rare represented as fold change to saline treated rats and shown as mean+/−SEM, * p<0.01.

SUM-159 cells = test: BCa lung metastasis after intracardiac injection of SUM-159 Luc2-eGFP cells, bioluminescence imaging; format: in vivo, NOD/SCID mice; conditions: Maraviroc 8 mg/kg every 12 hr oral gavage vs vehicle; n=6
Procedure: SUM-159 cells expressing Luc2-eGFP were introduced by intracardiac injection into 8-week old female NOD/SCID mice at 2×10^5 cells/mouse). […] Bioluminescence imaging was performed after intraperitoneal (i.p.) injection with 200 μL of D-luciferin at 30 mg/ml.

MDA-MB-231 BCa cells = conditions: Veliparib plus maraviroc vs vehicle, 72 hours, n=3
Procedure: After 24 hours, cells were harvested and pelleted by centrifugation. For cell death, cells were incubated with RNase A and propidium iodide to highlight DNA content and nuclear morphology. Cell death was identified by counting cells with nuclei that were smaller and with less DNA content compared to normal diploid cells. […] (mean+/−SD, n=3). […] MDA-MB-231 BCa cells were plated onto 96-well plates, allowed to adhere overnight, then treated with drug for 72 hours. Cells were incubated with DNA damaging agent (Veliparib) and either vehicle or maraviroc. A measurement of cell number was made at both the time of treatment (time 0) and after drug treatment (time 72) using CTG reagent (Promega, Madison, Wis.) to allow for calculation of percent growth inhibition and the dose required to inhibit growth rate by 50% (GR50). […] Data represents mean+/−SD (n=3).

cardiac progenitor iPSCs [10] = test: Cell death of cardiac precursor iPSCs with saline or DOX and maraviroc, propidium iodide; format: cell-based; conditions: 1 μM DOX plus maraviroc (0-100 m), 24 hours, n=3
From the text: (mean+/−SD, n=3). […] Data represents mean+/−SD (n=3).

[11] = Doxorubicin induced cardiac dysfunction, echocardiography 8 weeks after final dose; format: in vivo, mice; conditions: doxorubicin 8×3 mg/kg over 2 weeks with maraviroc 16 mg/kg twice daily gavage vs vehicle; n=15 per group
From the text: A representative example of the echocardiogram is shown. […] Indices include Left Ventricular End Systolic Dimension (LVESD) and Volume (LVESV), which are the diameter and volume of the left ventricle at the end of systole respectively, ejection fraction (EF) which is the percentage of the left ventricular volume expelled with each cardiac contraction (%), and fractional shortening (FS) which is the proportion of diastolic dimension lost in systole (%).

[12] = anthracycline cardiotoxicity myocardium (n=2) vs normal donor heart (n=2)

COc1ccccc1OCC(O)CN1CCN(CC(=O)Nc2c(C)cccc2C)CC1 (centres unmarked) [Ranolazine dihydrochloride]
survival of BCa cells [1]: reduced survival | survival of iPSC-CM (iPSC-CM): improved survival | DOX-induced cardiac toxicity (levels of apoptosis) ([2]; pretreated with ranolazine dihydrochloride 50 μM, then DOX 2 μM, n=3): reduces DOX-induced cardiac toxicity

COc1ccccc1OCC(O)CN1CCN(CC(=O)Nc2c(C)cccc2C)CC1 (centres unmarked) [Ranolazine]
breast cancer cell killing (cell proliferation) [3]: enhance breast cancer cell killing in a dose dependent manner

COc1cccc2c1C(=O)c1c(O)c3c(c(O)c1C2=O)C[C@@](O)(C(=O)CO)C[C@@H]3O[C@H]1C[C@H](N)[C@H](O)[C@H](C)O1 [doxorubicin]
cell death (cardiac progenitor iPSCs [4]; DOX 0-10 m, 24 hours, n=5): promotes cell death in a dose dependent manner | CCR5 expression (cardiac progenitor iPSCs [4]; DOX 24 hours, n=3): increases CCR5 expression | survival over first 90 days ([5]; doxorubicin 8x 3 mg/kg over 2 weeks with vehicle control): 7/15 | CCL3 mRNA expression in the heart [6]: increased mRNA expression | CCL5 mRNA expression in the heart [6]: increased mRNA expression | cardiac function (ejection fraction, ESD, ESV, PWs) [7]: induction of stable mild heart failure | CCL3 mRNA expression in the heart [8]: increased mRNA expression | CCL5 mRNA expression in the heart [8]: increased mRNA expression | CCR5 expression (% cells expressing CCR5) [9]: significantly increased | CCR5 expression in the myocardium (CCR5): increased | Average ejection fraction (EF) (CCR5, CCL3, CCL5): 25-35% | CCL3 expression in myocardium (CCR5, CCL3, CCL5; [12]): increased | CCL5 expression in myocardium (CCR5, CCL3, CCL5; [12]): increased | CCR5 expression in myocardium (CCR5, CCL3, CCL5; [12]): increased | proportion of DOX-induced apoptotic cell death ([2]; DOX 10 μM, no pretreatment): 17% | miRNAs targeting CCR5 with decreased expression in the myocardium (miRNAs targeting CCR5): 8/11

maraviroc
survival of BCa cells [1]: reduced survival | survival over first 90 days ([5]; doxorubicin 8x 3 mg/kg over 2 weeks with maraviroc 16 mg/kg twice daily gavage): 10/15 | enhanced survival over the vehicle in DOX treated mice ([5]; doxorubicin with maraviroc vs doxorubicin with vehicle): 2.77 fold | BCa lung metastasis (SUM-159 cells): reduced | BCa cell killing in combination with veliparib (MDA-MB-231 BCa cells): synergistically promotes BCa cell killing | DOX induced cell death (cardiac progenitor iPSCs [10]): significantly, and dose dependently, rescues DOX induced cell death | doxorubicin induced cardiac dysfunction (LVESD, LVESV, EF, FS) [11]: prevents doxorubicin induced cardiac dysfunction | survival of iPSC-CM (iPSC-CM): improved survival | proportion of DOX-induced apoptotic cell death ([2]; pretreated with maraviroc 100 μM, then DOX 10 μM): 3%
